# Source: patent publication US5977119A, “Trisubstituted thioxanthines” (Euro-Celtique, S.A., priority 1997, dated 1999)
# Experiments:
# [1] = tested on: bronchial and coronary dilation; conditions: in words; cited from earlier work
# [2] = tested on: Type IV PDE isolated from bovine tracheal smooth muscle (PDE IV); assay: Type IV PDE activity (hydrolysis of [^3 H]-cyclic AMP); format: biochemical; conditions: cyclic AMP 0.2 mM, 2.5% dimethyl sulfoxide, * = disubstituted analog
# Excerpt: In addition, the PDE IV inhibitory compounds of the present invention may be examined for their PDE IV inhibitory effects via the techniques set forth in the following examples, wherein the ability of the compounds to inhibit PDE IV isolated from bovine tracheal smooth muscle is set forth.
# The Type IV PDE is isolated from bovine tracheal smooth muscle using a procedure similar to that previously described by Silver, P. J. et al., Eur. J. Pharmacol. 150:85,1988.(1). Briefly, smooth muscle from bovine trachea is minced and homogenized using a polytron in 10 volumes of an extraction buffer containing 10 mM Tris-acetate (pH 7.5), 2 mM magnesium chloride, 1 mM dithiothreitol and 2,000 units/ml of aprotinin. This and all subsequent procedures are performed at 0-4° C. The homogenate is sonicated and then centrifuged at 48,000×g for 30 minutes. The resulting supernatant is applied to a DEAE Trisacryl M column previously equilibrated with sodium acetate and dithiothreitol. After applications of the sample, the column is washed with sodium acetate/ dithiothreitol, after which the different forms of PDE are eluted from the column using a linear Tris-HCl/NaCl gradient. Fractions containing Type IV PDE are collected, dialyzed and concentrated to 14% of the original volume. The concentrated fractions are diluted to 50% with ethylene glycol and stored at -20° C.
# Enzyme activity is assessed by measuring the hydrolysis of [^3 H]-cyclic AMP, as described by Thompson, W. J. et al., Adv. Cyclic Nucleotide Res. 10:69, 1979. The cyclic AMP concentration used in this assay is 0.2 mM, which approximates the Km value. Protein concentration is adjusted to ensure that no more than 15% of the available substrate is hydrolyzed during the incubation period.
# All test compounds are dissolved in dimethyl sulfoxide (final concentration of 2.5%). This concentration of dimethyl sulfoxide inhibits enzyme activity by approximately 10%.
# [3] = tested on: mast cells, basophils, monocytes and eosinophils; conditions: in-vitro, in words; cited from earlier work
# [4] = tested on: neutrophils and eosinophils; conditions: in-vitro, in words; cited from earlier work
# lymphocytes = conditions: in-vitro, in words; cited from earlier work
# PDE IV = conditions: in words, background; cited from earlier work
# PDE III = conditions: in words, background; cited from earlier work
# [5] = in words; cited from earlier work
structure (smiles),measurement,setting,value
"Cc1nc2c([nH]1)c(=S)n(C)c(=O)n2C [1,3,8-trimethyl-6-thioxanthine]",bronchial and coronary dilator activity,[1],having bronchial and coronary dilator activity
"CCn1c(=S)c2[nH]c(C(C)C)nc2n(CC)c1=O [1,3-diethyl-8-isopropyl-6-thioxanthine, 1,3-Diethyl-8-isopropyl-6-thioxanthine]",IC50,[2],1.2 µM
"CCc1nc2c([nH]1)c(=S)n(C)c(=O)n2C [1,3-dimethyl-8-ethyl-6-thioxanthine]",bronchial and coronary dilator activity,[1],having bronchial and coronary dilator activity
CCn1c(=O)n(C)c(=S)c2[nH]c(C(C)C)nc21 [3-ethyl-1-methyl-8-isopropyl-6-thioxanthine],IC50,[2],1 µM
CCn1c(=O)[nH]c(=S)c2[nH]c(C(C)C)nc21 [3-ethyl-8-isopropyl-6-thioxanthine],IC50,[2],4.6 µM
CCCn1c(=O)[nH]c(=S)c2[nH]c(CC)nc21 [3-propyl-8-ethyl-6-thioxanthine],IC50,[2],18.4 µM
"CCCn1c(=S)c2[nH]c(C3CC3)nc2n(CCC)c1=O [8-Cyclopropyl-1,3-dipropyl-6-thioxanthine]",IC50,[2],2.97 µM
CCC(C)Cn1c(=O)n(CC)c(=S)c2[nH]c(C3CC3)nc21 (stereo not shown) [8-Cyclopropyl-1-ethyl-3-(2-methyl-butyl)-6-thioxanthine],IC50,[2],1.18 µM
CCC(C)Cn1c(=O)[nH]c(=S)c2[nH]c(C3CC3)nc21 (stereo not shown) [8-cyclopropyl-3-(2-methyl-butyl)-6-thioxanthine],IC50,[2],3.83 µM
CCCn1c(=O)[nH]c(=S)c2[nH]c(C3CC3)nc21 [8-cyclopropyl-3-propyl-6-thioxanthine],IC50,[2],4.47 µM
"CCCn1c(=S)c2[nH]c(C(C)C)nc2n(CCC)c1=O [8-isopropyl-1,3-dipropyl-6-thioxanthine, 1,3-Dipropyl-8-isopropyl-6-thioxanthine]",IC50,[2],1.67 µM
CCCn1c(=O)[nH]c(=S)c2[nH]c(C(C)C)nc21 [8-isopropyl-3-propyl-6-thioxanthine],IC50,[2],3.3 µM
CCCCOc1cc(CC2CNC(=O)N2)ccc1OC (stereo not shown) [Ro-201724],inhibition of mediator synthesis/release,[3],shown to inhibit
same,"inhibition of respiratory burst, chemotaxis and degranulation",[4],shown to inhibit
same,inhibition of mitogen-dependent growth and differentiation,lymphocytes,shown to inhibit
COc1ccc(C2CNC(=O)C2)cc1OC1CCCC1 (stereo not shown) [Rolipram],PDE IV inhibition,PDE IV,selectively inhibit the PDE IV enzyme
same,inhibition of mediator synthesis/release,[3],shown to inhibit
same,"inhibition of respiratory burst, chemotaxis and degranulation",[4],shown to inhibit
same,inhibition of mitogen-dependent growth and differentiation,lymphocytes,shown to inhibit
Cn1c(=O)c2[nH]cnc2n(C)c1=O [Theophylline],PDE IV inhibition,PDE IV,inhibits both PDE III and PDE IV
same,PDE III inhibition,PDE III,inhibits both PDE III and PDE IV
same,therapeutic index,[5],narrow therapeutic index
